We go through one molecule from PMC4295349, “Synthetic Antimicrobial Peptides Exhibit Two Different Binding Mechanisms to the Lipopolysaccharides Isolated from Pseudomonas aeruginosa and Klebsiella pneumoniae” (International Journal of Medicinal Chemistry, 2014).

Like-named read-outs stand apart in the source and are kept apart here. Where a SMILES comes first, the peptide text is derived from it. [ ]: non-standard residue; d: D form. Oic = O=C(O)[C@@H]1C[C@@H]2CCCC[C@@H]2N1; Tic = O=C(O)[C@@H]1Cc2ccccc2CN1; Dab = NCC[C@H](N)C(=O)O

Data set [1] has as its system LPS isolated from P. aeruginosa or K. pneumoniae. Description: Precipitation of AMP-LPS mixtures prepared for CD. The format is physicochemical. The note with it: 350 μL stock LPS + 50 μL stock peptide, phosphate buffer; CD spectra could not be obtained. On the procedure:
Peptide solutions were prepared by dissolving approximately 2 mg of AMPs 70, 74, 75, 79, or 80 in 1.0 mL of phosphate buffer. […] For the LPS liposome studies 350 μL of stock LPS solution was mixed with 50 μL of stock peptide solution. CD spectroscopy is a sensitive technique, so it is commonly used to monitor conformational changes in peptides and proteins. […] All CD spectra were obtained by acquiring 8 scans using a 0.1 mm cylindrical quartz cell with a spectral range of 260 to 195 nm (at wavelengths below 195 nm the HTV exceeded 400, and therefore data collection was terminated at 195 nm) and a scanning rate of 20 nm/min. Acquisition parameters were bandwidth 1 nm, data pitch 0.2 nm, response time 2.0 s, and 5 mdeg sensitivity. Spectra were collected at room temperature (298 K). Contributions from LPS were eliminated by subtracting from the corresponding AMP-LPS solutions. All analyses of CD spectra were conducted after smoothing with a means-movement function.

Data set [2] relates to K. pneumoniae BAMC 07-18. The format is cell-based, Klebsiella pneumoniae. From the text: Table 3 In vitro minimum inhibitory concentration (MIC) and minimum bactericide concentration (MBC) activity against K. pneumonia and P. aeruginosa. | column: K. pneumoniae BAMC 07-18 / MBC (μg/mL)/(μM)
Data set [3] deals with P. aeruginosa PAO1.
Data set [4] concerns K. pneumoniae BAMC 07-18.
The test system of data set [5] is P. aeruginosa PAO1. The format is cell-based, Pseudomonas aeruginosa. An excerpt:
Table 3 In vitro minimum inhibitory concentration (MIC) and minimum bactericide concentration (MBC) activity against K. pneumonia and P. aeruginosa. | column: P. aeruginosa PAO1 / MBC (µg/mL)/(μM)

[6] abbreviates: K. pneumoniae BAMC 07-18, light face value.
Where [7] appears, read: P. aeruginosa PAO1, light face value.

For orientation: MBC means the lowest tested concentration that kills the bacteria rather than only halting them. For orientation: MIC means the smallest concentration in the dilution series that meets the test's criterion for growth inhibition. For `CC(C)C[C@H](NC(=O)[C@@H](N)CCN)C(=O)N1Cc2ccccc2C[C@H]1C(=O)N1[C@H](C(=O)N[C@@H](CCN)C(=O)N2Cc3ccccc3C[C@H]2C(=O)N2[C@H](C(=O)N[C@@H](Cc3ccccc3)C(=O)N3Cc4ccccc4C[C@H]3C(=O)N3[C@H](C(=O)N[C@@H](CCN)C(=O)N4Cc5ccccc5C[C@H]4C(=O)N4[C@H](C(=O)N[C@@H](Cc5ccccc5)C(=O)N5Cc6ccccc6C[C@H]5C(=O)N5[C@H](C(=O)N[C@@H](CCN)C(=O)N6Cc7ccccc7C[C@H]6C(=O)N6[C@H](C(=O)N[C@@H](CCN)C(=O)N[C@@H](CCN)C(=O)N[C@@H](CCN)C(=O)N[C@@H](CCN)C(N)=O)C[C@@H]7CCCC[C@@H]76)C[C@@H]6CCCC[C@@H]65)C[C@@H]5CCCC[C@@H]54)C[C@@H]4CCCC[C@@H]43)C[C@@H]3CCCC[C@@H]32)C[C@@H]2CCCC[C@@H]21` [AMP 73] (H-[Dab]L[Tic][Oic][Dab][Tic][Oic]F[Tic][Oic][Dab][Tic][Oic]F[Tic][Oic][Dab][Tic][Oic][Dab][Dab][Dab][Dab]-NH2), the “precipitation in the presence of either LPS” value in data set [1] is given as “precipitation of uncharacterized AMP-LPS complexes”. The minimum bactericidal concentration (MBC) with K. pneumoniae BAMC 07-18 [2] (BAMC 07-18) is 32.4 µM; against K. pneumoniae BAMC 07-18 [2] (setting [6]), 100 µg/mL; with P. aeruginosa PAO1 [5] (setting [7]), 100 µg/mL; in the data set with P. aeruginosa PAO1 [5] (PAO1) it was 32.4 µM. Also, the MIC with P. aeruginosa PAO1 [3] (setting [7]) is 50 µg/mL; in the data set with P. aeruginosa PAO1 [3] (PAO1) it was 16.2 µM; against K. pneumoniae BAMC 07-18 [4] (BAMC 07-18), 16.2 µM; in the data set with K. pneumoniae BAMC 07-18 [4] (setting [6]), 50 µg/mL.
